Test results published in PMC6058520 (Drug Delivery, 2018).
Values joined by “and” are separate entries in the source; they are usually repeats but may differ in a detail not shown here. Equal values may be shown once. Square brackets hold non-standard residues; d marks the D form. Peptide text beside a SMILES is read from it.

Key:
[1] = test system: BEAS-2B human bronchial epithelial cells; test: Cellular uptake of FITC-labeled peptides, flow cytometry; format: cell-based; conditions: FITC-labeled peptides 5 µM in BEGM, BEAS-2B cells, 30 min, 37 °C, p < .05
Description: Cellular uptake assays were carried out to assess the membrane permeability of the new peptides, as previously described (Bae et al., [2016]). Briefly, BEAS-2B human bronchial epithelial cells (American Type Culture Collection [ATCC], Manassas, VA) were maintained in bronchial epithelial growth medium (BEGM; Lonza, Walkersville, MD) and 2 × 10^5 cells/well were seeded in 12-well plates. After 24 h, the cells were washed twice with 1 mL phosphate-buffered saline (PBS) and incubated with FITC-labeled peptides (5 µM) in BEGM for 30 min at 37 °C. The cells were then washed three times with ice-cold PBS to remove cell surface-bound peptides. After trypsinization, the cells were collected by centrifugation (1000 × g for 5 min), washed and finally resuspended in 1 mL ice-cold PBS. The internalized FITC was measured using fluorescence-activated cell sorting on a FACSCalibur flow cytometer (Becton Dickinson, San Jose, CA, USA) at emission and excitation wavelengths of 510 and 530 nm, respectively. Assays were performed in triplicate and repeated at least three times. Flow cytometric analyses were accomplished using WinMDI v.2.8 software.

[2] = Pharmacokinetics of insulin/TCTP-PTD analog mixtures in normal rats (plasma insulin, ELISA); format: in vivo, rat; conditions: for BA (relative bioavailability compared to s.c.) / AUC / Cmax / Tmax: mean ± SEM (n = 5–7); for Cmax / Tmax: ELISA
Description: Rats were fasted for 16 h with access to water, anesthetized by intraperitoneal injection of sodium pentobarbital (60 mg/kg), and placed in the supine position. […] Blood samples (100 µL) were collected from the rat tail 5, 10, 20, 30, 60, 90, 120 and 180 min after dosing and centrifuged at 5000 × g for 25 min to obtain plasma. […] Relative BA was calculated using the following formula: BA(%)=(AUCnasal×Doses.c.)/(AUCs.c×Dosenasal)×100%

[3] = test system: rats with alloxan-induced diabetes; test: Pharmacodynamics (blood glucose) of insulin/TCTP-PTD analog mixtures in diabetic rats; format: in vivo, rat; conditions: area above blood glucose curve, mean ± SEM (n = 6–8)
Description: After 5 days, rats with fasting blood glucose levels in the range of 230-300 mg/dL were selected for the pharmacodynamic studies. […] Then, they were anesthetized by intraperitoneal injections of sodium pentobarbital (60 mg/kg). […] Blood samples were collected from the tip of the rat tail, and blood glucose levels were directly measured using an Accu-Chek glucose meter (Roche Diagnostics, Seoul, Korea). […] The area above the blood glucose curve (AAC) was calculated according to the trapezoid rule. The F% was calculated using the following equation: F%=([…])×100%

[4] = ref Bae & Lee, 2013; cited from earlier work
Text: We previously reported that the human translationally controlled tumor protein (TCTP) contains a PTD at its N-terminus (TCTP-PTD) with the amino acid sequence […] al., [2011a]). To improve the penetration of peptides through the cell membrane, we designed variant peptides modified from TCTP-PTD. […] Therefore, the D-TCTP-PTD analogs could negatively affect insulin delivery through the nasal mucosa.

[5] = D-form compared with L-TCTP-PTD 13; ref Bae et al., 2016; cited from earlier work
Text: Therefore, the D-TCTP-PTD analogs could negatively affect insulin delivery through the nasal mucosa.

[6] = insulin 1 IU/kg intranasal plus 0.1 mM PTD
[7] = insulin 1 IU/kg intranasal plus 0.25 mM PTD
[8] = plasma insulin AUC0-180 min, insulin 1 IU/kg intranasal plus 0.1 mM PTD
[9] = plasma insulin AUC0-180 min, insulin 1 IU/kg intranasal plus 0.25 mM PTD
[10] = plasma insulin, insulin 1 IU/kg intranasal plus 0.1 mM PTD
[11] = plasma insulin, insulin 1 IU/kg intranasal plus 0.25 mM PTD

Compound | cellular uptake capacity compared with L-TCTP-PTD 13 (in words) [1] | BA (relative bioavailability compared to s.c.) [2, 6] | BA (relative bioavailability compared to s.c.) [2, 7] | AUC [2, 8] | AUC [2, 9] | Cmax [2, 10] | Tmax [2, 10] | Cmax [2, 11] | Tmax [2, 11] | AUC ([2]; AUC0-180 min, insulin s.c., 0.25 IU/kg) | AUC ([2]; AUC0-180 min, trapezoid rule, insulin alone, intranasal, 5 IU/kg) | plasma insulin after intranasal insulin alone (in words) ([2]; insulin 1 IU/kg intranasal, alone) | Cmax ([2]; insulin s.c., 0.25 IU/kg) | AAC0–240 min ([3]; insulin alone, intranasal, 2 IU/kg) | AAC0–240 min ([3]; insulin s.c., 1 IU/kg) | nasal absorption of insulin compared to insulin alone (in words) [4] | antigen (ovalbumin) carrier potency through nasal mucosa (in words) [5]
CC[C@H](C)[C@H](NC(=O)[C@H](CC(C)C)NC(=O)[C@H](CC(C)C)NC(=O)[C@H](CCCNC(=N)N)NC(=O)[C@H](Cc1ccccc1)NC(=O)[C@@H](NC(=O)[C@@H](NC(=O)[C@H](CCSC)NC(C)=O)[C@@H](C)CC)[C@@H](C)CC)C(=O)N[C@@H](CO)C(=O)N[C@@H](Cc1c[nH]cn1)C(=O)N[C@@H](CCCCN)C(=O)N[C@@H](CCCCN)C(N)=O [L-TCTP-PTD 13M1] (Ac-MIIFRLLISHKK-NH2) | lower | 20.9 ± 1.4% | 10.1 ± 2.4% | 1966.3 ± 130.5 μU/mL·min | 951.7 ± 225.9 μU/mL·min | 47.1 ± 3.1 μU/mL | 10.0 ± 0.0 min | 15.0 ± 3.3 μU/mL | 13.3 ± 2.1 min |  |  |  |  |  |  |  | 
Insulin: Human recombinant insulin (27.5 IU/mg), Sigma-Aldrich |  |  |  |  |  |  |  |  |  | 2356.4 ± 106.2 μU/mL·min | 180.5 ± 37.6 μU/mL·min | scarcely detectable | 40.9 ± 0.9 μU/mL | 721.0 ± 478.2 % glucose/min | 11354.3 ± 507.8 % glucose/min |  | 
CC[C@H](C)[C@H](NC(=O)[C@H](CC(C)C)NC(=O)[C@H](C)NC(=O)[C@H](CCCNC(=N)N)NC(=O)[C@H](Cc1ccccc1)NC(=O)[C@@H](NC(=O)[C@@H](NC(=O)[C@H](CCSC)NC(C)=O)[C@@H](C)CC)[C@@H](C)CC)C(=O)N[C@@H](CO)C(=O)N[C@@H](Cc1c[nH]cn1)C(=O)N[C@@H](CCCCN)C(=O)N[C@@H](CCCCN)C(N)=O [L-TCTP-PTD 13] (Ac-MIIFRALISHKK-NH2) |  | 9.0 ± 1.4% | 22.1% and 22.1 ± 2.5% | 847.1 ± 132.9 μU/mL·min | 2081.7 ± 238.6 μU/mL·min | 26.4 ± 7.8 μU/mL | 12.0 ± 2.0 min | 53.4 ± 6.7 μU/mL | 10.0 ± 0.0 min |  |  |  |  |  |  | enhanced nasal absorption | 
CC[C@@H](C)[C@@H](NC(=O)[C@@H](CC(C)C)NC(=O)[C@@H](C)NC(=O)[C@@H](CCCNC(=N)N)NC(=O)[C@@H](Cc1ccccc1)NC(=O)[C@H](NC(=O)[C@H](NC(=O)[C@@H](CCSC)NC(C)=O)[C@H](C)CC)[C@H](C)CC)C(=O)N[C@H](CO)C(=O)N[C@H](Cc1c[nH]cn1)C(=O)N[C@H](CCCCN)C(=O)N[C@H](CCCCN)C(N)=O [D-TCTP-PTD 13] (Ac-[dM][dI][dI][dF][dR][dA][dL][dI][dS][dH][dK][dK]-NH2) |  |  | 6.8% and 6.8 ± 2.0% |  | 645.5 ± 191.2 μU/mL·min |  |  | 13.8 ± 4.2 μU/mL | 14.0 ± 2.4 min |  |  |  |  |  |  |  | more potent antigen carrier
